# Assay results taken from patent US12156889B2, “Methods of administering mesenchymal stem cells activated by cytokines for enhancing immunosuppression” (Rutgers, The State University of New Jersey, priority 2012, dated 2024).
# B1: IFNβ: type I IFN, printed as IFNα or β (protein, UniProt P01575 22-182, looked up)
# Interferon beta: INYKQLQLQERTNIRKCQELLEQLNGKINLTYRADFKIPMEMTEKMQKSYTAFAIQEMLQNVFLVFRNNFSSTGWNETIVVRLLDELHQQTVFLKTVLEEKQEERLTWEMSSTALHLKSYYWRVQRYLKLMKYNSYAWMVVRAEIFRNFLIIRRLTRNFQN
# B2: TNFα: recombinant mouse tumor necrosis factor-alpha (protein)
# chain: LRSSSQNSSDKPVAHVVANHQVEEQLEWLSQRANALLANGMDLKDNQLVVPADGLYLVYSQVLFKGQGCPDYVLLTHTVSRFAISYQEKVNLLSAVKSPCPKDTPEGAELKPWYEPIYLGGVFQLEKGDQLSAEVNLPKYLDFAESGQVYFGVIAL
# B3: IFNγ: recombinant mouse interferon-gamma (protein)
# chain: HGTVIESLESLNNYFNSSGIDVEEKSLFLDIWRNWQKDGDMKILQSQIISFYLRLFEVLKDNQAISNNISVIESHLITTFFSNSKAKKDAFMSIAKFEVNNPQVQRQAFNELIRVVHQLLPESSLRKRKRSRC
# B4: IL-6: Interleukin-6 (protein, UniProt P08505 25-211, looked up)
# Interleukin-6: FPTSQVRRGDFTEDTTPNRPVYTTSQVGGLITHVLWEIVEMRKELCNGNSDCMNNDDALAENNLKLPEIQRNDGCYQTGYNQEICLLKISSGLLEYHSYLEYMKNNLKDNKKDKARVLQRDTETLIHIFNQEVKDLHKIVLPTPISNALLTDKLESQKEWLRTKTIQFILKSLEEFLKVTLRSTRQT
# Legend:
# [1] = test system: peripheral blood mononuclear cell; experiment: Peripheral blood mononuclear cell proliferation with human MSCs; format: cell-based; conditions: side-by-side comparison mouse and human MSCs
# Protocol: In the present study, with T cell activation or when exogenous inflammatory cytokines are added, the T cells first enter cell cycle arrest and then die within 24 hours. It was also observed that this apoptosis was dependent on NO, since T cell apoptosis was not observed when iNOS inhibitors were used. Apoptosis was also absent when iNOS^−/− or IFNγ R1^−/− MSCs were used. Therefore, NO-induced cell cycle arrest and apoptosis of T cells are part of the mechanism of immunosuppression mediated by inflammatory cytokine-activated MSCs. Differences between species in inflammatory cytokine-induced expression of iNOS has been noted in macrophages (Schneemann & Schoedon. 2002) Nat. Immunol. 3(2):102). […] Thus, the roles of IDO and NO in the inhibition of T cell proliferation by MSCs from mouse and human were analyzed in a side-by-side comparison.
# [2] = test system: splenocytes; experiment: Anti-CD3-activated splenocyte proliferation in co-culture with MSCs; format: cell-based, mouse; conditions: for effect on immunosuppression by MSCs: indomethacin 10 μM, anti-IL-10 20 μg/ml, anti-TGFβ 20 μg/ml, 1-MT 1 mM; for splenocyte proliferation in MSC co-culture with iNOS inhibitor: MSCs + splenocytes + anti-CD3
# Protocol: FIGS. 9A, 9B, 9C, 9D, 9E, 9F and 9G. […] Cloned MSCs were first treated with the indicated combinations of recombinant cytokines IFNγ, TNFα, IL-17A (2 ng/ml each) for 12 hr, then cocultured with CD4^+ T cell blasts at a 1:20 ratio (MSC:T cells), and proliferation was assessed by 3H-thymidine incorporation after an additional 12 hr. (FIG. 9B). The mRNA expression of IL-17 receptor family members in MSCs or Raw 264.7 (Macrophages) were examined by RT-PCR. NC: No RT. (FIG. 9C). Surface expression of IL-17RA was detected by immunofluoresence or flow cytometry in cloned MSCs. (FIGS. 9D and 9E). MSCs were first treated with IFNγ and TNFα with or without IL-17A (10 ng/ml), IFNγ and TNFα were supplemented at different cytokine concentrations, for 12 hr, and then cocultured with CD4^+ T cell blasts (FIG. 9D) or T cell hybridoma A1.1 cells (FIG. 9E) at a ratio of 1:20 for 12 hr. T cell proliferation was measured by 3H-Tdr incorporation. (FIG. 9F). MSCs were first treated with IFNγ and TNFα (2 ng/ml) with graded concentrations of IL-17A, for 12 hr, and then cocultured with T cell hybridoma A1.1 cells at a ratio of 1:10 for 12 hr. T cell proliferation was measured by 3H-thymidine incorporation. (FIG. 9G). MSCs were cocultured with fresh C57BL/6 splenocytes plus anti-CD3, anti-CD28, and antibodies against IL-17A, at a 1:20 or 1:40 ratio (MSCs:splenocytes), for 48 hr, and then cell proliferation was assessed by 3H-thymidine incorporation. Proliferation values represent means±SEM of three wells from a representative of three experiments.
# To examine the possibility that cytokines induce the immunosuppressive capacity of MSCs, these culture conditions were reproduced by combining MSCs and fresh splenocytes at graded ratios in the presence of anti-CD3. […] The immunosuppressive capacity of MSC clones generated from different mouse strains was also examined.
# To identify the mechanism through which immunosuppression by cytokine-exposed MSCs is effected, the response of anti-CD3-activated splenocytes co-cultured with MSCs (1:20, MSC:splenocytes) in a […] system was examined in various configurations.
# Nitric oxide (NO) at high concentrations is known to inhibit T cell responses. It diffuses quickly from its source, but the concentration of the active form drops off within about 100 μm.
# Proliferation assay—To assay T cell proliferation, 0.5 μCi of 3H-thymidine was added to each well of 96-well plates 6 hr before termination of the cultures by freezing. Plates were then thawed, cells were harvested, and incorporated 3H-Tdr was assessed with a Wallac Microbeta scintillation counter (Perkin-Elmer, Waltham, MA).
# [3] = test system: F1 (C57BL/6xC3H) mice; experiment: Graft-versus-host disease (GvHD) model
# Protocol: Recipient mice (C57BL/6xC3H, F1) were lethally irradiated and injected i.v. with C57BL/6 bone marrow cells plus spleenocytes. On days 3 and 7 after bone marrow transplantation, recipients were administered with the indicated MSCs. For some wild-type MSC groups, L-NMMA, anti-IFNγ or a 3-antibody cocktail against TNFα, IL-1α, and IL-1β, (3 Abs) were injected i.p. Survival was monitored daily for 12 weeks.
# GvHD Induction and Modulation by MSCs. C57BL/6×C3H F1 mice at 8-weeks old were lethally irradiated (13 Gy) and after 24 hours were infused by tail vein injection with nucleated bone marrow cells (5×10^6) and splenocytes (5×10^6) isolated from C57BL/6 parent mice. On days 3 and 7 following bone marrow transplantation, the recipients were administrated with 0.5×10^6 MSCs derived from C57BL/6 wild-type, IFNγ R1^−/−, or iNOS^−/− mice via the tail vein. Some wild-type MSC groups were also injected i.p. with the iNOS inhibitor, NG-monomethyl L-arginine (L-NMMA, 500 μg/mouse), anti-IFNγ (400 μg/mouse), or a cocktail of three antibodies against TNFα, IL-1α and IL-1β (200 μg each/mouse) daily for 7 days starting immediately after the first MSC administration. As negative controls, the F1 mice were injected with F1 bone marrow cells. Mice were observed daily for GvHD signs (wasting, ruffled hair, and hunched back) and euthanized upon becoming moribund, thus marking survival time. […]
# [4] = test system: CD4+ T cell blasts; experiment: T cell blast proliferation in co-culture with MSCs (3H-thymidine incorporation); format: cell-based, mouse; conditions: for induction of immunosuppression by MSCs with recombinant cytokines: 20 ng/ml each, MSC + T cell blasts or MSC + A1.1 cells, 1:20; for T cell proliferation after MSC treatment with low-concentration cytokines: 2 ng/ml each, 12 hr, then 1:20 MSC:T cells
# Protocol: FIG. 1. is a graph showing that immunosuppression by MSCs is induced by proinflammatory cytokines. Cloned MSCs were supplemented with the indicated combinations of recombinant cytokines (20 ng/ml each) for 8 hours, then co-cultured with CD4+ T cell blasts at a 1:20 ratio (MSC:T cells), and proliferation assessed after an additional 8 hours. Values represent means±SD of five wells from a representative of three experiments with different clones. * p<0.001.
# FIGS. 9A, 9B, 9C, 9D, 9E, 9F and 9G. (FIG. 9A). Cloned MSCs were first treated with the indicated combinations of recombinant cytokines IFNγ, TNFα, IL-17A (2 ng/ml each) for 12 hr, then cocultured with CD4^+ T cell blasts at a 1:20 ratio (MSC:T cells), and proliferation was assessed by 3H-thymidine incorporation after an additional 12 hr. (FIG. 9B). The mRNA expression of IL-17 receptor family members in MSCs or Raw 264.7 (Macrophages) were examined by RT-PCR. NC: No RT. (FIG. 9C). Surface expression of IL-17RA was detected by immunofluoresence or flow cytometry in cloned MSCs. (FIGS. 9D and 9E). MSCs were first treated with IFNγ and TNFα with or without IL-17A (10 ng/ml), IFNγ and TNFα were supplemented at different cytokine concentrations, for 12 hr, and then cocultured with CD4^+ T cell blasts (FIG. 9D) or T cell hybridoma A1.1 cells (FIG. 9E) at a ratio of 1:20 for 12 hr. T cell proliferation was measured by 3H-Tdr incorporation. (FIG. 9F). MSCs were first treated with IFNγ and TNFα (2 ng/ml) with graded concentrations of IL-17A, for 12 hr, and then cocultured with T cell hybridoma A1.1 cells at a ratio of 1:10 for 12 hr. T cell proliferation was measured by 3H-thymidine incorporation. (FIG. 9G). MSCs were cocultured with fresh C57BL/6 splenocytes plus anti-CD3, anti-CD28, and antibodies against IL-17A, at a 1:20 or 1:40 ratio (MSCs:splenocytes), for 48 hr, and then cell proliferation was assessed by 3H-thymidine incorporation. Proliferation values represent means±SEM of three wells from a representative of three experiments.
# T cell blasts were generated from CD4^+ T cells purified by negative selection with […] T cell subset isolation kits (R&D Systems). Cells (1×10^6 cells/ml) were activated by plastic-bound anti-CD3 and soluble anti-CD 28 for 48 hours, then cultured with IL-2 (200 U/ml) alone for 48 hours. All T cell cultures were maintained in RPMI-1640 medium supplemented with 10% heat-inactivated FBS, 2 mM glutamine, 100 U/ml penicillin, 100 μ·g/ml streptomycin, and […] (complete medium).
# Since most reported studies of immunosuppression by MSCs are based on their effects on T cell proliferation and cytokine production, the effect of MSCs was first examined on the IL-2-driven proliferation of T cell blasts. Fresh CD4^+ T cell blasts were generated from splenocytes by activation with anti-CD3 followed by expansion with IL-2 for several days (Devadas, et al. (2006) Immunity 25:237-247; Radvanyi, et al. (1996) Cell Immunol. 170:260-273). T cell blasts were added at a 1:20 ratio (MSC:T cells) along with IL-2 (200 U/ml). Cell proliferation was assessed by ^3H-Tdr incorporation after 8 hours. […] MSCs also had no effect on the proliferation of T hybridoma A1.1 cells. These T cells blasts and T hybridoma cells, however, produce no cytokines unless reactivated through the TCR (Fotedar, et al. (1985) J. Immunol. 135(5):3028-33). Thus, in the absence of T cell cytokines, MSCs were unable to suppress T cell proliferation.
# The effect of IFNγ was then tested directly by adding isolated recombinant IFNγ (20 ng/ml) instead of activated splenocyte supernatant to the mixed co-cultures of MSC+ T cell blasts or MSC+A1.1 cells. […] Therefore, induction of the immunosuppressive function of MSCs by anti-CD3-activated splenocyte supernatant may be due to IFNγ acting in concert with either TNFα; IL-1α; or IL-1β on the MSCs. […]
# [5] = test system: iNOS; experiment: iNOS mRNA in MSCs by real-time PCR; format: cell-based, mouse; conditions: 20 ng/ml each
# Protocol: Real-Time PCR. RNA was isolated from cell pellets using an RNEASY Mini Kit. First-strand cDNA synthesis was performed using SENSISCRIPT RT Kit with random hexamer primers (all kits from Qiagen, Valencia, Calif.). mRNA of the genes of interest were quantified by real-time PCR (MX-4000 from Stratagene, La Jolla, Calif.) using SYBR Green Master Mix (Applied Biosystems, Foster City, Calif.). Total amount of mRNA was normalized to endogenous β-actin mRNA. Primers sequences for iNOS were: forward, 5′-CAGCTGGGCTGTACAAACCTT-3′ (SEQ ID NO:1); reverse, 5′-CATTGGAAGTGAAGCGTTTCG-3′ (SEQ ID NO:2). Other primers were from the RT2 PROFILER™ PCR Array Mouse Chemokines & Receptors kit (Superarray, Frederick, Md.).
# Accordingly, it was contemplated that MSCs could upregulate their expression of iNOS and produce NO after exposure to these cytokines. […] […] At 12 hours post-stimulation, the level of iNOS mRNA was more than 7 times greater than β actin message, indicative of extremely high expression.
molecule,measurement,setting,value
"Cn1cc(CC(N)C(=O)O)c2ccccc21 (racemic) [1-MT, 1-methyl-DL-tryptophan]",effect on inhibition of peripheral blood mononuclear cell proliferation by human MSCs,[1],reversed
same,effect on immunosuppression by MSCs,[2],no effect
COC(=O)[C@@H](N)CCCNC(=N)N[N+](=O)[O-] [L-NAME],splenocyte proliferation in MSC co-culture with iNOS inhibitor,[2],same effect
"CNC(=N)NCCC[C@H](N)C(=O)O [L-NMMA, N G-monomethyl-L-arginine]",splenocyte proliferation in MSC co-culture with iNOS inhibitor,[2],completely restored
same,effect on immunosuppression by mouse MSCs,[2]; side-by-side comparison mouse and human MSCs,completely reversed
same,effect on protection by MSC (histology),[3]; 14 days after bone marrow transplantation,almost completely reversed
same,effect on MSC-mediated protection from GvHD (survival),[3]; i.p. daily for 7 days after wild-type MSC infusion,significant reversal
"COc1ccc2c(c1)c(CC(=O)O)c(C)n2C(=O)c1ccc(Cl)cc1 [indomethacin, Indomethacin]",effect on immunosuppression by MSCs,[2],no effect
GM-CSF: Granulocyte-macrophage colony-stimulating factor,induction of immunosuppression by MSCs with recombinant cytokines,[4],no effect
B1,MSC-mediated immunosuppression in MSC+splenocyte+anti-CD3 system,[2],strikingly inhibited
B2,iNOS mRNA upregulation in MSCs by recombinant cytokines,[5],ineffective
same,T cell proliferation after MSC treatment with low-concentration cytokines,[4],cannot induce immunosuppression
B3,iNOS mRNA upregulation in MSCs by recombinant cytokines,[5],ineffective
same,T cell proliferation after MSC treatment with low-concentration cytokines,[4],cannot induce immunosuppression
same,induction of immunosuppression by MSCs with recombinant cytokines,[4],did not induce immunosuppression
B4,induction of immunosuppression by MSCs with recombinant cytokines,[4],no effect
